In patent publication US7501421B2, “Benzoxazole and benzothiazole derivatives as 5-hydroxytryptamine-6 ligands” (Wyeth, priority 2006, dated 2009):
Where a name gives a salt, the structure may show the parent alone.

target: human cloned 5-HT6 receptors (Homo sapiens, UniProt P50406); assay: Evaluation of 5-HT6 binding affinity ([3H]-LSD radioligand binding)
Sequence (P50406 whole entry): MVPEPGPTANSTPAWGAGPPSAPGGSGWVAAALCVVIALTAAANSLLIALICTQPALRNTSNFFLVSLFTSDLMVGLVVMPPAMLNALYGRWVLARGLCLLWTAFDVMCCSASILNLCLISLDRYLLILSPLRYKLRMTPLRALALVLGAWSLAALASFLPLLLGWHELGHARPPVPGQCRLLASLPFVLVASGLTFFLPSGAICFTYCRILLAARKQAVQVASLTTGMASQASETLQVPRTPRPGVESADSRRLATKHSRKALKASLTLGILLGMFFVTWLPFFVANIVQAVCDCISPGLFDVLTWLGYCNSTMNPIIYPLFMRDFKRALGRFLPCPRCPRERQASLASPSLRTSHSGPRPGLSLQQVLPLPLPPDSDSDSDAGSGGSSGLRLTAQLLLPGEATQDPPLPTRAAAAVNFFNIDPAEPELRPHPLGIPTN

Ki [nM]	Structure (SMILES)
67	O=S(=O)(c1ccccc1)c1cccc2oc(N3CCNCC3)nc12 [Example 13]
78	O=S(=O)(c1cccc2ccccc12)c1cccc2oc(N3CCN(C4CCCC4)CC3)nc12 [Example 30]
500	O=S(=O)(c1ccc2nc(N3CCNCC3)sc2c1)c1cccc2ccccc12 [Example 41, 6-(1-Naphthylsulfonyl)-2-piperazin-1-ylbenzothiazole Dihydrochloride]
10	CN1CCN(c2nc3c(S(=O)(=O)c4cccc5ccccc45)cccc3o2)CC1 [Example 22, 2-(4-Methylpiperazin-1-yl)-4-(1-naphthylsulfonyl)benzoxazole Dihydrochloride]
91	O=S(=O)(c1cccc2ccccc12)c1cccc2oc(N3CCN(C4CCCCC4)CC3)nc12 [Example 31]
7	O=S(=O)(c1cccc2ccccc12)c1cccc2nc(N3CCNCC3)oc12 [Example 34, 7-(1-naphthylsulfonyl)-2-piperazin-1-ylbenzoxazole Dihydrochloride]
